Experiments:
cGAS = cGAS (Homo sapiens (Human), UniProt Q8N884); assay: Human cGAS enzyme assay (hcGAS IC50, in vitro), cGAMP formation by RapidFire MS; assay type: biochemical; conditions: biochemical (in vitro) cGAS inhibition;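 also: enzyme activated by 45 bp dsDNA with GTP and ATP (30 µM each), 60 min compound pre-incubation then 90 min reaction, cGAMP relative to cyclic-di-GMP internal standard, 8-point dilutions up to 10 µM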
[1] = tested on: cellular cGAS activity in baculovirus-stimulated THP1-Dual cells (IRF dependent Lucia luciferase reporter); assay: Human cGAS cell assay: inhibition of IFN induction in virus-stimulated THP1 cells (THP1(vir) IC50); assay type: cell-based; conditions: Homo sapiens, THP1-Dual; inhibition of IFN induction in virus-stimulated THP1 cells; read-out: THP1(vir) IC50
Excerpt: (§1) 6.2 Method: Human cGAS Cell Assay and cGAMP Stimulated Counter Cell Assay (THP1(vir) IC50 and THP1(cGAMP) IC50)
(§2) THP1-Dual™ cells (InvivoGen #thpd-nfis) expressing IRF dependent Lucia luciferase reporter were used as basis for both assays. For the detection of cellular cGAS activity cells were stimulated by a baculovirus (pFastbac-1, Invitrogen, no coding insert) infection that delivers the cGAS enzyme stimulating double-stranded DNA (measurement of THP1(vir) IC50).
(§3) For the counter assay, cells were stimulated by cGAMP (SigmaAldrich #SML1232) to activate the identical pathway independent and directly downstream of cGAS (measurement of THP1(cGAMP) IC50). Pathway activity was monitored by measuring the Lucia luciferase activity induced by either DNA stimulated cGAS enzyme activity (measurement of THP1(vir) IC50) or by cGAMP directly (measurement of THP1(cGAMP) IC50, counter assay).
(§4) Compounds were delivered in 10 mM DMSO solution, serially diluted and transferred to the 384 well assay plate (Greiner #781201) using an Echo acoustic dispenser. Typically, 8 concentrations were used with the highest concentration at 10 μM in the final assay volume followed by ˜1:5 dilution steps. DMSO concentration was set to 1% in the final assay volume. The 384 well assay plate contained 21 test compounds (column 1-22), and DMSO in column 23 and 24.
(§5) Cells, cultivated according to manufacturer conditions, were harvested by centrifugation at 300 g/10 min and were then resuspended and diluted to 1.66E5 cells/ml in fresh cell culture medium (RPMI 1640 (Gibco #A10491-01), 10% FCS (Gibco #10500), 1× GlutaMax (Gibco #35050-061), 1× Pen/Strep solution (Gibco #15140-122), 100 μg/ml Normocin (InvivoGen #ant-nr), 100 μg/ml Zeocin (InvivoGen #ant-zn), 10 μg/ml Blasticidin S (Life Technologies #A11139-03)). The baculovirus solution was then added 1:200 (have varied according to virus batch) to the cells (measurement of THP1(vir) IC50).
(§6) 30 μL of the cell/virus-mix were added to each well of the compound plate from column 1-23 via MultiDrop Combi dispenser (5000 cells/well). In column 24, 30 μl/5000 cells/well without virus were added as a low control.
(§7) The plates were then incubated for 18 h at 37° C. in a humidified incubator.
(§8) Following that, 15 μl of QuantiLuc detection reagent (InvivoGen #rep-qlcg5) were added to each well using a MultiDrop Combi. Measurement was done immediately after the addition using an EnVision reader (US-luminescence read-mode).
(§9) For data evaluation and calculation, the measurement of the low control was set as 0% control and the measurement of the high control was set as 100% control. The IC50 values were calculated using the standard 4 parameter logistic regression formula. Calculation: [y=(a−d)/(1+(x/c)^b)+d], a=low value, d=high value; x=conc M; c=IC50 M; b=slope

[2] = tested on: cGAMP-stimulated THP1-Dual cells (pathway directly downstream of cGAS); assay: cGAMP stimulated counter cell assay: inhibition of IFN induction in cGAMP-stimulated THP1 cells (THP1(cGAMP) IC50); assay type: cell-based, human; conditions: for IC50: Homo sapiens, THP1-Dual, inhibition of IFN induction in cGAMP-stimulated THP1 cells, read-out: THP1(cGAMP) IC50 (converted); for Ratio THP1(cGAMP) IC50 / THP1(vir) IC50: selectivity for cGAS inhibition
Excerpt: as §1, §2, §3, §4, §5, §6, §7, §8, §9

[3] = tested on: cellular cGAS activity in dsDNA-stimulated human whole blood; assay: Human whole blood assay (hWB IC50): IFNα2α production after dsDNA transfection; assay type: cell-based; conditions: inhibition of IFN induction in dsDNA-stimulated human whole blood
Protocol: 6.3 Method: Human Whole Blood Assay (Human WB IC50)
For the detection of cellular cGAS activity human whole blood was stimulated by transfection with double stranded DNA. Pathway activity was monitored by measuring the IFNα2α production.
Compounds were delivered as 10 mM DMSO solution and serially diluted and transferred to the 96-well cell culture plate (Corning #3595), prefilled with 20 μl OptiMEM (Gibco, #11058-021) in each well, using an Echo acoustic dispenser. Typically, 8 concentrations were used with the highest concentration at 10 µM in the final assay volume followed by ˜1:5 dilution steps. DMSO concentration was set to 0.1% in the final assay volume. The 96-well assay plate contained 10 test compounds, and DMSO in control wells.
Collection of human whole blood from 3 or more healthy donors (male or female, no medication for 7 days except contraceptive and thyroxine) as Na-Citrate blood (e.g. 3.8% in Monovettes from Sarstedt) was conducted in parallel. Whole blood was kept at room temperature for a maximum of 3 hours after collection until use in the assay.
160 μl of the whole blood samples was transferred to each well of the 96-well assay plates filled with compound/OptiMEM. All assay plates were prepared as duplicates with blood from different donors. Blood plates were kept at room temperature for 60 minutes and continuous shaking with 450 rpm, covered with the lid, but not sealed.
20 μl OptiMEM and 9.6:1 Fugene was added to all low control wells.
After covering assay plates with aera seals and the lid, blood plates were kept at room temperature for 30 minutes and continuous shaking with 450 rpm, followed by an overnight incubation of 22 h at 37° C. in the incubator, without shaking.
For the detection of IFNα-2α in human plasma, the biotinylated capture antibody (Antibody set IFNA2, Meso Scale Diagnostics #B21VH-3, including coating and capture antibody) was diluted 1:17.5 in Diluent 100 (Meso Scale Diagnostics #R^50AA-4), according to the manufacturer's directions. U-Plex MSD GOLD 96-well Small Spot Strepavidin SECTOR Plates (Meso Scale Diagnostics #L45SA-5) were coated with 25 μl diluted capture antibody. Coated plates were incubated for 60 min at room temperature under continuous shaking at 700 rpm. MSD IFNα-2α plates were washed three times with 150 μl wash buffer (1x HBSS, 0.05% Tween).
After blocking the plates with 100 μl block solution/well (1x HBSS with 0.2% Tween, 2% BSA) for 60 min at room temperature and continuous shaking at 700 rpm, plates were emptied as dry as possible by dumping just before continuing with the human plasma.
Whole Blood assay plates were centrifuged at 1600 rpm for 10 minutes. 25 μl of supernatant was transferred with a pipetting robot from each whole blood plate to the corresponding IFNα-2α plate. Plates were sealed with microplate seals and kept at room temperature again under continuous shaking at 700 rpm for two hours.
Next MSD IFNα-2α plates were washed three times with 150 μl wash buffer (1×HBSS, 0.05% Tween), before adding 25 μl MSD SULFO-TAG IFNα-2α Antibody solution (1:100 diluted in Diluent 3 (Meso Scale Diagnostics #R50AP-2) to each well of the plates.
Afterwards plates were sealed with microplate seals and kept at room temperature again under continuous shaking at 700 rpm for two hours. Finally, MSD IFNα-2α plates were washed three times with 150 μl wash buffer (1×HBSS, 0.05% Tween). 150 μl 2× Read buffer was added to each well and plates were immediately measured with the MSD Sector S600 Reader using the vendor barcode.
For data evaluation and calculation, % control calculation of each well was based on the mean of high (DNA stimulated control) and mean of low (unstimulated control) controls by using the following formula:
[counts(sample)−counts(low))/(counts(high)−counts(low))]*100
The IC50 values were calculated using the standard 4 parameter logistic regression formula. Calculation: [y=(a−d)/(1+(x/c)^b)+d], a=low value, d=high value; x=conc M; c=IC50 M; b=slope

Chain of cGAS (Q8N884 whole entry): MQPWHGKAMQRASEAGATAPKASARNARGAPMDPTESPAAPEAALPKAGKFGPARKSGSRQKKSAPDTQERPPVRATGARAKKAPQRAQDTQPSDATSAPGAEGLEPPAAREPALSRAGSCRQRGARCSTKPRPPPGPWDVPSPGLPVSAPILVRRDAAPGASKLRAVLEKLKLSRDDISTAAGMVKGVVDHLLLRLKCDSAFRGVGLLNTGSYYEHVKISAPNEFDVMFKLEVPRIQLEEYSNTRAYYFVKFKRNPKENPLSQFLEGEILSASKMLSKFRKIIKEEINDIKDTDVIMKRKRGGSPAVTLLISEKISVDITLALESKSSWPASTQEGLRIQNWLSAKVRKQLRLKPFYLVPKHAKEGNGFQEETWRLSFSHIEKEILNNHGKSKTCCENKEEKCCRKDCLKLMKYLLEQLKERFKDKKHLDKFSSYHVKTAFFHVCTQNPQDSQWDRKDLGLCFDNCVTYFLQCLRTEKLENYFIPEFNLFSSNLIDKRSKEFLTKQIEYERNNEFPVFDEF

| Structure (SMILES) | IC50 (cGAS) [nM] | IC50 [1] [nM] | IC50 [2] [nM] | Ratio THP1(cGAMP) IC50 / THP1(vir) IC50 [2] | IC50 [3] [nM] |
| --- | --- | --- | --- | --- | --- |
| Cc1noc(C)c1-c1cnc(O[C@H]2C[C@@H](C(=O)O)N(c3nc(C(F)(F)F)nc4c3oc3ccccc34)C2)c(N2CCOC3(COC3)[C@@H]2C)c1 [Example 3.27] | 21 | 326 | 12500 | 38 | 1860 |
| C#Cc1cnc(O[C@H]2C[C@@H](C(=O)O)N(c3nc(C(F)(F)C(F)(F)F)nc4c3oc3ccccc34)C2)c(N2CCOC3(COC3)[C@@H]2C)c1 [Example 1.17] | 17 | 154 | > 16600 | >108 | 305 |
| C[C@@H]1N(c2cc(-c3cccc(CO)c3)cnc2O[C@H]2C[C@@H](C(=O)O)N(c3nc(C(F)F)nc4c3oc3ccccc34)C2)CCOC12COC2 [Example 3.11] | 4 | 5 | 5290 | 1149 | 11 |
| CNCc1cccc(-c2cnc(O[C@H]3C[C@@H](C(=O)O)N(c4nc(C(F)(F)F)nc5c4oc4ccccc45)C3)c(N3CCOC4(COC4)[C@@H]3C)c2)c1 [Example 3.22] | 16 | 177 | 8910 | 50 | 70 |
| C#Cc1cnc(O[C@H]2C[C@@H](C(=O)O)N(c3nc(C(F)(F)F)nc4c3oc3ccccc34)C2)c(N2CCCC3(COC3)[C@@H]2C)c1 [Example 1.22] | 5 | 21 | 7640 | 355 | 29 |
| COc1ncccc1-c1cnc(O[C@H]2C[C@@H](C(=O)O)N(c3nc(C(F)(F)F)nc4c3oc3ccccc34)C2)c(N2CCOC3(COC3)[C@@H]2C)c1 [Example 3.14] | 11 | 10 | 7830 | 822 | 26 |
| CNc1cccc(-c2cnc(O[C@H]3C[C@@H](C(=O)O)N(c4nc(C(F)(F)F)nc5c4oc4ccccc45)C3)c(N3CCOC4(COC4)[C@@H]3C)c2)c1 [Example 3.12] | 9 | 6 | 11100 | 1930 | 19 |
| CSc1cc(-c2cnc(O[C@H]3C[C@@H](C(=O)O)N(c4nc(C(F)F)nc5c4oc4ccccc45)C3)c(N3CCOC4(COC4)[C@@H]3C)c2)ccn1 [Example 3.16, (2S,4S)-1-[4-(difluoromethyl)-8-oxa-3,5-diazatricyclo-[7.4.0.0^2.7]trideca-1(9),2(7),3,5,10,12-hexaen-6-yl]-4-({5-[(9S)-9-methyl-2,5-dioxa-8-azaspiro[3.5]nonan-8-yl]-2′-(methylsulfanyl)-[3,4′-bipyridin]-6-yl}oxy)-pyrrolidine-2-carboxylic acid] | 15 | 19 | 11800 | 629 | 38 |
| C[C@@H]1N(c2cc(Br)cnc2O[C@H]2C[C@@H](C(=O)O)N(c3nc(C(F)(F)F)nc4c3oc3ccccc34)C2)CCOC12CC2 [Example 1.33] | 3 | 15 | > 10000 | 677 | 252 |
| C#Cc1cnc(O[C@H]2C[C@@H](C(=O)O)N(c3nc(C(F)F)nc4c3oc3ccccc34)C2)c(N2CCOC[C@@H]2C)c1 [Example 1.31] | 3 | 232 | > 16600 | >72 | 102 |
| C#Cc1cnc(O[C@H]2C[C@@H](C(=O)O)N(c3nc(C)nc4c3oc3ccccc34)C2)c(N2CCOC[C@@H]2C)c1 [Example 1.29] | 4 | 296 | > 16600 | >56 | 61 |
| C[C@@H]1N(c2cc(-c3cccc(N(C)C)c3)cnc2O[C@H]2C[C@@H](C(=O)O)N(c3nc(C(F)(F)F)nc4c3oc3ccccc34)C2)CCOC12COC2 [Example 3.17] | 20 | 11 | 16800 | 1542 | 43 |
